What was measured:
Type in all cases: functional, Homo sapiens
K562 [1] = experiment: Compound at 10 uM was tested in vitro to inhibit proliferation of K562 leukemia cell line
K562 [2] = experiment: Compound at 1 uM was tested in vitro to inhibit proliferation of K562 leukemia cell line
HL-60 [3] = experiment: Compound at 10 uM was tested in vitro to inhibit proliferation of HL-60 leukemia cell line
K562 [4] = experiment: Compound at 100 uM was tested in vitro to inhibit proliferation of K562 leukemia cell line
HL-60 [5] = experiment: Compound at 1 uM was tested in vitro to inhibit proliferation of HL-60 leukemia cell line
HL-60 [6] = experiment: Compound at 100 uM was tested in vitro to inhibit proliferation of HL-60 leukemia cell line

CCCCCCCCCCCC[C@@H](O)[C@H]1CCC([C@H](O)CCCCC(=O)CCCCCCCC2=C[C@H](C)OC2=O)O1 (stereo partly specified)
IG (K562 [1]): 16%
IG (K562 [2]): 2%
IG (HL-60 [3]): 29%
IG (K562 [4]): 53%
IG (HL-60 [5]): 0%
IG (HL-60 [6]): 68%

CCCCCCCCCCOCCOCCOCCOCCCCC(O)CCCCCCCC1=C[C@H](C)OC1=O (stereo partly specified)
IG (K562 [1]): 25%
IG (K562 [2]): 22%
IG (HL-60 [3]): 65%
IG (K562 [4]): 55%
IG (HL-60 [5]): 21%
IG (HL-60 [6]): 100%

CCCCCCCCCCCOCCOCCOCCCCC(O)CCCCCCCC1=C[C@H](C)OC1=O (stereo partly specified)
IG (K562 [1]): 18%
IG (K562 [2]): 0%
IG (HL-60 [3]): 50%
IG (K562 [4]): 31%
IG (HL-60 [5]): 0%
IG (HL-60 [6]): 100%

CCCCCCCCCCCC[C@@H](O)[C@H]1CCC([C@H](O)CCCCC(O)CCCCCCCC2=C[C@H](C)OC2=O)O1 (mixture of isomers)
IG (K562 [1]): 2%
IG (K562 [2]): 0%
IG (HL-60 [3]): 56%
IG (K562 [4]): 10%
IG (HL-60 [5]): 5%
IG (HL-60 [6]): 63%

CCCCCCCCCC[C@@H](O)[C@@H]1CC[C@@H]([C@@H]2CC[C@@H]([C@H](O)CCCCCCCCCC(O)CC3=CC(C)OC3=O)O2)O1 (stereo partly specified) [BULLATACIN]
IG (K562 [1]): 39%
IG (K562 [2]): 27%
IG (HL-60 [3]): 7%
IG (K562 [4]): 53%
IG (HL-60 [5]): 0%
IG (HL-60 [6]): 73%

CCCCCCCCCCCC[C@@H](O)[C@H]1CC[C@H]([C@H](O)CCCCCCCCCCCCC2=C[C@H](C)OC2=O)O1 [REL-SOLAMIN]
IG (K562 [1]): 39%
IG (K562 [2]): 29%
IG (HL-60 [3]): 8%
IG (K562 [4]): 59%
IG (HL-60 [5]): 0%
IG (HL-60 [6]): 24%

— ChEMBL document CHEMBL1133104, “Polyether mimics of naturally occurring cytotoxic annonaceous acetogenins” (2000)
